Measurements reported in publication PMC9408991, “Antitumor Effects of a New Retinoate of the Fungal Cytotoxin Illudin M in Brain Tumor Models” (International Journal of Molecular Sciences, 2022).

Columns and labels:
U87 glioma cells = assay: Apoptosis of U87 glioma cells (calcein/Annexin V-Cy3); format: cell-based, human; settings: between 1 and 10 µM, 48 h
Experimental: Astroglia cells grown on poly-L-lysine-coated glass cover slips were fixed with 4% paraformaldehyde in PBS for 20 min at room temperature and then permeabilized with Triton X-100 (0.1% v/v in PBS; 5 min). Nonspecific antibodies were blocked by incubation with 3% FBS in PBS (room temperature, 1 h). α-GFAP antibody (rabbit, DAKO) was used in a dilution of 1:2000 and was visualized by anti-rabbit IgG Alexa 594 (1:1000). DAPI (4′,6-diamidino-2-phenylindole) was used for nuclei staining. Fluorescence images were captured manually on a Zeiss Axiovert 200 M microscope fitted with 20- to 60-fold zoom and a Zeiss AxioCam MRm digital camera. Further applied antibodies were tubulin III (Sigma T5076), used at a dilution of 1:1000, and Annexin V. Cy3.18 (Sigma A4963).
Figure 6 U87 glioma cells undergo apoptosis upon 48 h treatment with 10 µM of 2. Cells in the early stages of apoptosis show calcein (green)/Annexin V-Cy3 (red) double labeling. Scale bars: 50 µm; 20 µm for inserts.

[1] = tested on: retinoid-responsive elements (RARE); assay: RA reporter assay, F9 RARE-lacZ reporter cells; format: cell-based; settings: 0.3-5.0 µM, 20 h
Excerpt: More typical of retinoic acid is its contribution to cell differentiation during vertebrate embryonic development by interacting with nuclear receptors, which bind to specific retinoid-responsive elements (RARE) within the promoters of subordinate genes, activating their transcription. To verify that retinoate 2 also binds to RARE, we used a reporter assay with F9 teratocarcinoma cells featuring a RARE located within the cis-acting regulatory sequences of the human retinoic acid receptor alpha gene and immediately upstream of the E. coli lacZ genes, which thus acquire retinoid responsivity. LacZ expression in cells treated with various concentrations of 2 was then quantitated by densitometric analysis of β-galactosidase activity visualized by X-Gal staining.
The F9 embryonal carcinoma cell line, stably transfected with the 1.8 kb promoter sequence of RARb2 coupled to the lacZ gene, was used to measure active retinoids. The assay is appropriate for detection of all-trans RA but is able to detect other retinoid isomers as well. The F9 reporter cells were maintained in 10% FCS containing DMEM in the presence of 400 ug/mL G418. A day before the assay, F9 cell were seeded onto 24-well plates (100,000 cell/well). The cells were than treated with various concentrations of 2. […]

Question: What does the source list for `CC1=C(/C=C/C(C)=C/C=C/C(C)=C/C(=O)O[C@@H]2C3=C(C)C4(CC4)[C@@](C)(O)C(=O)C3=CC2(C)C)C(C)(C)CCC1` [Compound 2, illudin M retinoate]?
Answer: apoptosis of U87 glioma cells (U87 glioma cells): undergoing rapid apoptosis; activation of F9 RARE-lacZ reporter cells (β-galactosidase, X-Gal staining) [1]: concentration-dependent activation
